Earlier results on one molecule are cited in PubChem BioAssay AID1259409 (Chemical Carcinogenesis Research Information System (CCRIS), 2018).

The test system of the data set is rodent chemically induced tumor inhibition, incidence and multiplicity. Put plainly: CCRIS tumor inhibitor studies. The following applies: Dose [Inhibitor]: 0, Route [Inhibitor]: ORAL, Species: RAT, Promoter: NONE USED.

Regarding `O=c1oc2c(O)c(O)cc3c(=O)oc4c(O)c(O)cc1c4c23`, the “tumour outcome (control, treated, inhibition, significance)” value is given as 5/14 (36%), 0/12 (0%), 100%, p<0.05 (Carcinogen: DIETHYLNITROSAMINE, 55-18-5, N-METHYLNITROSOUREA, 684-93-5, 1,2-DIMETHYLHYDRAZINE, 540-73-8, N-BUTYL-N-(4-HYDROXYB, Carcinogen: DIETHYLNITROSAMINE, 55-18-5, N-METHYLNITROSOUREA, 684-93-5, 1,2-DIMETHYLHYDRAZINE, 540-73-8, N-BUTYL-N-(4-HYDROXYB, 1% IN DIET FOR 4 WK BEGINNING 1 DAY PRIOR TO CARCINOGEN TREATMENT (STUDY DURATION: 36 WK), Strain/Sex: F344/MALE, Target Tissue: Type of Lesion: SMALL INTESTINE: CARCINOMA, Dose [Carcinogen]: 100 MG/KG DEN ONCE, 20 MG/KG MNU 4 TIMES, 40 MG/KG DMH 4 TIMES, 0.05% BBN IN DRINKING WATER FOR 2 WK, 0.1% DHPN IN D, Dose [Carcinogen]: 100 MG/KG DEN ONCE, 20 MG/KG MNU 4 TIMES, 40 MG/KG DMH 4 TIMES, 0.05% BBN IN DRINKING WATER FOR 2 WK, 0.1% DHPN IN D); 6/14 (43%), 1/12 (8%), 81%, not significant (Carcinogen: DIETHYLNITROSAMINE, 55-18-5, N-METHYLNITROSOUREA, 684-93-5, 1,2-DIMETHYLHYDRAZINE, 540-73-8, N-BUTYL-N-(4-HYDROXYB, Carcinogen: DIETHYLNITROSAMINE, 55-18-5, N-METHYLNITROSOUREA, 684-93-5, 1,2-DIMETHYLHYDRAZINE, 540-73-8, N-BUTYL-N-(4-HYDROXYB, 1% IN DIET FOR 4 WK BEGINNING 1 DAY PROIR TO CARCINOGEN TREATMENT (STUDY DURATION: 36 WK), Strain/Sex: F344/MALE, Target Tissue: Type of Lesion: LUNG: ADENOMA, Dose [Carcinogen]: 100 MG/KG DEN ONCE, 20 MG/KG MNU 4 TIMES, 40 MG/KG DMH 4 TIMES, 0.05% BBN IN DRINKING WATER FOR 2 WK, 0.1% DHPN IN D, Dose [Carcinogen]: 100 MG/KG DEN ONCE, 20 MG/KG MNU 4 TIMES, 40 MG/KG DMH 4 TIMES, 0.05% BBN IN DRINKING WATER FOR 2 WK, 0.1% DHPN IN D); 4/14 (29%), 2/13 (15%), 48%, not significant (Carcinogen: DIETHYLNITROSAMINE, 55-18-5, N-METHYLNITROSOUREA, 684-93-5, 1,2-DIMETHYLHYDRAZINE, 540-73-8, N-BUTYL-N-(4-HYDROXYB, Carcinogen: DIETHYLNITROSAMINE, 55-18-5, N-METHYLNITROSOUREA, 684-93-5, 1,2-DIMETHYLHYDRAZINE, 540-73-8, N-BUTYL-N-(4-HYDROXYB, 1% IN DIET FOR 32 WK BEGINNING POST CARCINOGEN TREATMENT (STUDY DURATION: 36 WK), Strain/Sex: F344/MALE, Target Tissue: Type of Lesion: KIDNEY: ADENOMA, Dose [Carcinogen]: 100 MG/KG DEN ONCE, 20 MG/KG MNU 4 TIMES, 40 MG/KG DMH 4 TIMES, 0.05% BBN IN DRINKING WATER FOR 2 WK, 0.1% DHPN IN D, Dose [Carcinogen]: 100 MG/KG DEN ONCE, 20 MG/KG MNU 4 TIMES, 40 MG/KG DMH 4 TIMES, 0.05% BBN IN DRINKING WATER FOR 2 WK, 0.1% DHPN IN D); 7/14 (50%), 5/13 (38%), 24%, not significant (Carcinogen: DIETHYLNITROSAMINE, 55-18-5, N-METHYLNITROSOUREA, 684-93-5, 1,2-DIMETHYLHYDRAZINE, 540-73-8, N-BUTYL-N-(4-HYDROXYB, Carcinogen: DIETHYLNITROSAMINE, 55-18-5, N-METHYLNITROSOUREA, 684-93-5, 1,2-DIMETHYLHYDRAZINE, 540-73-8, N-BUTYL-N-(4-HYDROXYB, 1% IN DIET FOR 32 WK BEGINNING POST CARCINOGEN TREATMENT (STUDY DURATION: 36 WK), Strain/Sex: F344/MALE, Target Tissue: Type of Lesion: KIDNEY: NEPHROBLASTOMA, Dose [Carcinogen]: 100 MG/KG DEN ONCE, 20 MG/KG MNU 4 TIMES, 40 MG/KG DMH 4 TIMES, 0.05% BBN IN DRINKING WATER FOR 2 WK, 0.1% DHPN IN D, Dose [Carcinogen]: 100 MG/KG DEN ONCE, 20 MG/KG MNU 4 TIMES, 40 MG/KG DMH 4 TIMES, 0.05% BBN IN DRINKING WATER FOR 2 WK, 0.1% DHPN IN D); 3/14 (21%), 6/12 (50%), -138%, not significant (Carcinogen: DIETHYLNITROSAMINE, 55-18-5, N-METHYLNITROSOUREA, 684-93-5, 1,2-DIMETHYLHYDRAZINE, 540-73-8, N-BUTYL-N-(4-HYDROXYB, Carcinogen: DIETHYLNITROSAMINE, 55-18-5, N-METHYLNITROSOUREA, 684-93-5, 1,2-DIMETHYLHYDRAZINE, 540-73-8, N-BUTYL-N-(4-HYDROXYB, 1% IN DIET FOR 32 WK BEGINNING POST CARCINOGEN TREATMENT (STUDY DURATION: 36 WK), Strain/Sex: F344/MALE, Target Tissue: Type of Lesion: LARGE INTESTINE: CARCINOMA, Dose [Carcinogen]: 100 MG/KG DEN ONCE, 20 MG/KG MNU 4 TIMES, 40 MG/KG DMH 4 TIMES, 0.05% BBN IN DRINKING WATER FOR 2 WK, 0.1% DHPN IN D, Dose [Carcinogen]: 100 MG/KG DEN ONCE, 20 MG/KG MNU 4 TIMES, 40 MG/KG DMH 4 TIMES, 0.05% BBN IN DRINKING WATER FOR 2 WK, 0.1% DHPN IN D); 6/14 (43%), 0/12 (0%), 100%, < p<0.05 (Carcinogen: DIETHYLNITROSAMINE, 55-18-5, N-METHYLNITROSOUREA, 684-93-5, 1,2-DIMETHYLHYDRAZINE, 540-73-8, N-BUTYL-N-(4-HYDROXYB, Carcinogen: DIETHYLNITROSAMINE, 55-18-5, N-METHYLNITROSOUREA, 684-93-5, 1,2-DIMETHYLHYDRAZINE, 540-73-8, N-BUTYL-N-(4-HYDROXYB, 1% IN DIET FOR 32 WK BEGINNING POST CARCINOGEN TREATMENT (STUDY DURATION: 36 WK), Strain/Sex: F344/MALE, Target Tissue: Type of Lesion: SMALL INTESTINE: ADENOMA, Dose [Carcinogen]: 100 MG/KG DEN ONCE, 20 MG/KG MNU 4 TIMES, 40 MG/KG DMH 4 TIMES, 0.05% BBN IN DRINKING WATER FOR 2 WK, 0.1% DHPN IN D, Dose [Carcinogen]: 100 MG/KG DEN ONCE, 20 MG/KG MNU 4 TIMES, 40 MG/KG DMH 4 TIMES, 0.05% BBN IN DRINKING WATER FOR 2 WK, 0.1% DHPN IN D). For the same molecule, the “tumour outcome (control, treated, inhibition, significance)” value reads like this: (Carcinogen: DIETHYLNITROSAMINE, 55-18-5, N-METHYLNITROSOUREA, 684-93-5, 1,2-DIMETHYLHYDRAZINE, 540-73-8, N-BUTYL-N-(4-HYDROXYB, Carcinogen: DIETHYLNITROSAMINE, 55-18-5, N-METHYLNITROSOUREA, 684-93-5, 1,2-DIMETHYLHYDRAZINE, 540-73-8, N-BUTYL-N-(4-HYDROXYB, 1% IN DIET FOR 32 WK BEGINNING POST CARCINOGEN TREATMENT (STUDY DURATION: 36 WK), Strain/Sex: F344/MALE, Target Tissue: Type of Lesion: SMALL INTESTINE: CARCINOMA, Dose [Carcinogen]: 100 MG/KG DEN ONCE, 20 MG/KG MNU 4 TIMES, 40 MG/KG DMH 4 TIMES, 0.05% BBN IN DRINKING WATER FOR 2 WK, 0.1% DHPN IN D, Dose [Carcinogen]: 100 MG/KG DEN ONCE, 20 MG/KG MNU 4 TIMES, 40 MG/KG DMH 4 TIMES, 0.05% BBN IN DRINKING WATER FOR 2 WK, 0.1% DHPN IN D) 5/14 (36%), 1/12 (8%), 78%, not significant; (Carcinogen: DIETHYLNITROSAMINE, 55-18-5, N-METHYLNITROSOUREA, 684-93-5, 1,2-DIMETHYLHYDRAZINE, 540-73-8, N-BUTYL-N-(4-HYDROXYBU, Carcinogen: DIETHYLNITROSAMINE, 55-18-5, N-METHYLNITROSOUREA, 684-93-5, 1,2-DIMETHYLHYDRAZINE, 540-73-8, N-BUTYL-N-(4-HYDROXYBU, 1% IN DIET FOR 32 WK BEGINNING POST CARCINOGEN TREATMENT (STUDY DURATION: 36 WK), Strain/Sex: F344/MALE, Target Tissue: Type of Lesion: LARGE INTESTINE: ADENOMA, Dose [Carcinogen]: 100 MG/KG DEN ONCE, 20 MG/KG MNU 4 TIMES, 40 MG/KG DMH 4 TIMES, 0.05% BBN IN DRINKING WATER FOR 2 WK, 0.1% DHPN IN D, Dose [Carcinogen]: 100 MG/KG DEN ONCE, 20 MG/KG MNU 4 TIMES, 40 MG/KG DMH 4 TIMES, 0.05% BBN IN DRINKING WATER FOR 2 WK, 0.1% DHPN IN D) 7/14 (50%), 3/12 (25%), 50%, not significant; (Carcinogen: DIETHYLNITROSAMINE, 55-18-5, N-METHYLNITROSOUREA, 684-93-5, 1,2-DIMETHYLHYDRAZINE, 540-73-8, N-BUTYL-N-(4-HYDROXYBU, Carcinogen: DIETHYLNITROSAMINE, 55-18-5, N-METHYLNITROSOUREA, 684-93-5, 1,2-DIMETHYLHYDRAZINE, 540-73-8, N-BUTYL-N-(4-HYDROXYBU, 1% IN DIET FOR 32 WK BEGINNING POST CARCINOGEN TREATMENT (STUDY DURATION: 36 WK), Strain/Sex: F344/MALE, Target Tissue: Type of Lesion: LUNG: ADENOMA, Dose [Carcinogen]: 100 MG/KG DEN ONCE, 20 MG/KG MNU 4 TIMES, 40 MG/KG DMH 4 TIMES, 0.05% BBN IN DRINKING WATER FOR 2 WK, 0.1% IN DRINKI, Dose [Carcinogen]: 100 MG/KG DEN ONCE, 20 MG/KG MNU 4 TIMES, 40 MG/KG DMH 4 TIMES, 0.05% BBN IN DRINKING WATER FOR 2 WK, 0.1% IN DRINKI) 6/14 (43%), 1/13 (8%), 81%, p<0.05; (Carcinogen: N-NITROQUINOLINE-1-OXIDE, 56-57-5, 400 PPM IN DIET FOR 7 WK BEGINNING 1 WK PRIOR TO START OF CARCINOGEN TREATMENT (STUDY DURATION: 32 WK), Strain/Sex: F344\MALE, Target Tissue: Type of Lesion: TONGUE: CARCINOMA, Dose [Carcinogen]: 20 PPM IN DRINKING WATER FOR 5 WK) 9/15 (60%), 0/15 (0%), 100%, p=0.00035; (Carcinogen: N-NITROSOBENZYLMETHYLAMINE, 937-40-6, 0.4 G/KG IN DIET BEGINNING 2 WK PRIOR TO FIRST CARCINOGEN DOSE (STUDY DURATION: 27 WK), Strain/Sex: F-344/MALE, Target Tissue: Type of Lesion: ESOPHAGUS: TUMOR, Dose [Carcinogen]: 0.5, 1.25 MG/KG 1/WK FOR 18 WK) 15/15 (100%), 15/15 (100%), 0%, not calculated (low dose carcinogen); 15/15 (100. In addition, for the setting “Carcinogen: N-NITROSOBENZYLMETHYLAMINE, 937-40-6, 0.4 G/KG IN DIET BEGINNING 2 WK PRIOR TO FIRST CARCINOGEN DOSE (STUDY DURATION: 20 WK), Strain/Sex: F-344/MALE, Target Tissue: Type of Lesion: ESOPHAGUS: TUMOR, Dose [Carcinogen]: 0.5, 1.25 MG/KG 1/WK FOR 18 WK”, the outcome is reported as 15/15 (100%), 14/15 (93%), 7%, not calculated (low dose carcinogen); 15/15 (100%.
